Reference: US20120178666A1 (SHIRE LLC, priority 2009, published 2012)
Counter-ions that a name gives are not always drawn. Like-named read-outs stand apart in the source and are kept apart here.

Columns and labels:
[1] = Comparative pharmacokinetic screening study of guanfacine prodrugs in the monkey; conditions: oral gavage
Protocol: Blood samples were taken on 4 sampling occasions at various times up to 6 hours after administration and submitted to analysis for the parent drug and prodrug using a qualified LC-MS-MS assay.

[2] = Comparative bioavailability study in monkeys in the fasted or fed state; type: in vivo, cynomolgus monkey; conditions: Fasted, 0.5 mg/kg guanfacine equivalent, oral
Protocol: Five male cynomolgus monkeys were used. Food was withdrawn from animals in fasted groups from the evening of the day prior to dosing until approximately 4 hours after dosing.
The formulations were prepared on the day of dosing and administered orally as soon as practicable up to a maximum of 2 hours after formulation.
Blood samples (0.5 mL) were collected from all animals pre-dose and at 0.5, 1, 2, 3, 4, 6, 8 10, 12, 16 and 24 hours after dosing.
Following processing, the resultant plasma was frozen and analysed by a qualified method. Pharmacokinetic evaluation was performed using a validated pharmacokinetic software package.

[3] = Prodrug stability in simulated intestinal fluid (USP); conditions: 37° C.
Protocol: (§1) The remaining concentrations of the prodrugs were then assayed by HPLC.

[4] = Prodrug stability in simulated gastric fluid (USP); conditions: 37° C.
Protocol: as §1

gut motility = test: Charcoal propulsion test (gut motility); type: in vivo, rat; conditions: Rattus norvegicus, po, read-out: % inhibition of GIT transit compard to vehicle
Protocol: The effect of a drug on gut motility can be studied by means of the charcoal propulsion test.
The method used was based on that described by Takemori et al. (J. Pharmacol. Exp. Ther. 169:39, 1969). Test treatments were administered orally 60 minutes prior to an oral dose of a 10% suspension of charcoal in 2.5% gum Arabic (2 ml/kg). Twenty minutes after dosing with charcoal, the rats were sacrificed and the entire gastrointestinal tract was removed quickly and carefully. The distance that the charcoal meal had travelled toward the caecum was measured and expressed as a percentage of the total gut length.

[5] = Comparative bioavailability study of guanfacine in monkeys (full pharmacokinetics); type: in vivo, cynomolgus monkey; conditions: oral gavage, monkey
Protocol: The characteristics of the test animals are set out in Table 13.
The following pharmacokinetic parameters derived from the plasma analytical data were determined using Win Nonlin;

[6] = Study 1, oral dose 0.1 mg/kg guanfacine free base equivalents
[7] = Study 1, oral dose 0.3 mg/kg guanfacine free base equivalents
[8] = Study 1, oral dose 1 mg/kg guanfacine free base equivalents
[9] = Study 1, oral dose 3 mg/kg guanfacine free base equivalents
[10] = Study 1, oral dose 5 mg/kg guanfacine free base equivalents

Row | % prodrug remaining following incubation for: 2 h in simulated intestinal fluid pH 6.8 [3] [%] | % prodrug remaining following incubation for: 1 h in simulated gastric fluid pH 1.1 [4] [%] | Structure (SMILES) | also measured
1 | 89 | 75 | CC(C)[C@H](N)C(=O)NCCC(=O)NC(=N)NC(=O)Cc1c(Cl)cccc1Cl [Compound 2, guanfacine-β-alanine-(S)-valine amide di-trifluoroacetate] | mean Cmax (ng/mL) prodrug [2]: BLQ; prodrug levels in plasma (in words) [1]: detectable prodrug levels in plasma; inhibition at 0.1 mg/kg (gut motility; [6]): -3%; inhibition at 0.3 mg/kg (gut motility; [7]): 30%; inhibition at 1 mg/kg (gut motility; [8]): 42%; inhibition at 3 mg/kg (gut motility; [9]): 42%; inhibition at 5 mg/kg (gut motility; [10]): 42%
2 | 78 | 93 | CC(C)[C@H](N)C(=O)N[C@@H](COC(=O)NC(=N)NC(=O)Cc1c(Cl)cccc1Cl)C(=O)O [Compound 17, (S)-Valine-(S)-Serine(Guanfacine) Carbamate] | prodrug levels in plasma (in words) [1]: total absence of prodrug in the plasma
3 | 83 | 70 | C[C@@H](N)C(=O)N[C@@H](CCC(=O)NC(=N)NC(=O)Cc1c(Cl)cccc1Cl)C(=O)O [Compound 41, (R)-Alanine-(S)-γ-Glutamate(Guanfacine) Amide] | prodrug levels in plasma (in words) [1]: detectable prodrug levels in plasma
4 | 85 | 75 | CSCC[C@@H](N)C(=O)N[C@@H](CCC(=O)NC(=N)NC(=O)Cc1c(Cl)cccc1Cl)C(=O)O [Compound 44, (R)-Methionine-(S)-γ-Glutamate(Guanfacine) Amide] | 
5 | 89 | 91 | CNCC(=O)NCCOC(=O)NC(=N)NC(=O)Cc1c(Cl)cccc1Cl [Compound 71, Guanfacine ethanolamine-Sarcosine Carbamate] | 
6 | 89 | 86 | CC(C)[C@@H](N)C(=O)N[C@@H](CCC(=O)NC(=N)NC(=O)Cc1c(Cl)cccc1Cl)C(=O)O [Compound 5, guanfacine-γ-(S)-glutamic acid-(R)-valine amide di-trifluoroacetate] | plasma guanfacine profile (in words) [5]: sustained guanfacine concentrations; inhibition at 0.1 mg/kg (gut motility; [6]): 6%; inhibition at 0.3 mg/kg (gut motility; [7]): 22%; inhibition at 1 mg/kg (gut motility; [8]): 48%; inhibition at 1.7 mg/kg (gut motility; Study 1, oral dose 1.7 mg/kg guanfacine free base equivalents): 50%; inhibition at 3 mg/kg (gut motility; [9]): 44%; inhibition at 5 mg/kg (gut motility; [10]): 42%
7 | 160 | 77 | CC(C)[C@@H](NC(=O)COC(=O)NC(=N)NC(=O)Cc1c(Cl)cccc1Cl)C(=O)O [Compound 30, Guanfacine (glycolyl-(R)-Valine) Carbamate] | 
8 | 95 | 78 | N=C(NC(=O)Cc1c(Cl)cccc1Cl)NC(=O)OC[C@H](NC(=O)[C@@H]1CCC(=O)N1)C(=O)O [Compound 16, (S)-Pyroglutamic acid-(S)-Serine(Guanfacine) Carbamate] | 
9 | 99 | 90 | N=C(NC(=O)Cc1c(Cl)cccc1Cl)NC(=O)OCC[C@H](N)C(=O)O [Compound 65, (S)-Homoserine Guanfacine Carbamate] | 
10 | 66 | 79 | CNCC(=O)N[C@@H](CCC(=O)NC(=N)NC(=O)Cc1c(Cl)cccc1Cl)C(=O)O [Compound 7, Sarcosine-(S)-γ-Glutamate-Guanfacine Amide] | 
11 | 89 | 72 | N=C(NC(=O)CC[C@H](NC(=O)[C@H](N)CO)C(=O)O)NC(=O)Cc1c(Cl)cccc1Cl [Compound 47, (R)-Serine-(S)-γ-Glutamate(Guanfacine) Amide] | 
12 | 66 | 73 | CC(C)[C@@H](N)C(=O)N[C@@H](C(=O)NC(=N)NC(=O)Cc1c(Cl)cccc1Cl)C(C)C [Compound 54, Guanfacine (R)-Valine-(R)-Valine Amide] | 
13 | 99 | 96 | N=C(NC(=O)Cc1c(Cl)cccc1Cl)NC(=O)OCCNC(=O)CC[C@H](N)C(=O)O [Compound 58, Guanfacine (ethanolamine-(S)-γ-Glutamate) Carbamate] | 
14 |  | 79 | CC(C)[C@@H](N)C(=O)NCCC(=O)NC(=N)NC(=O)Cc1c(Cl)cccc1Cl [Compound 11, Guanfacine β-Alanine-(R)-Valine Amide] | prodrug levels in plasma (in words) [1]: detectable prodrug levels in plasma

The remaining lines, values behind:

Row | Structure (SMILES) | % prodrug remaining following incubation for: 2 h in simulated intestinal fluid pH 6.8 [3] [%] | % prodrug remaining following incubation for: 1 h in simulated gastric fluid pH 1.1 [4] [%] | also measured
15 | CN(CC(=O)O)C(=O)NC(=N)NC(=O)Cc1c(Cl)cccc1Cl [Compound 9, Guanfacine Sarcosine Urea] |  |  | prodrug levels in plasma (in words) [1]: high prodrug levels
16 | CC(C)[C@H](NC(=O)CCCC(=O)NC(=N)NC(=O)Cc1c(Cl)cccc1Cl)C(=O)O [Compound 1, guanfacine-[glutaryl-(S)-valine] amide trifluoroacetate] | 92 | 80 | plasma guanfacine profile (in words) [5]: sustained guanfacine concentrations; inhibition at 0.1 mg/kg (gut motility): 9%; inhibition at 0.3 mg/kg (gut motility): 6%; inhibition at 1 mg/kg (gut motility): 45%; inhibition at 3 mg/kg (gut motility): 50%; inhibition at 5 mg/kg (gut motility): 53%
17 | O=C(O)CC[C@@H]1N=C(NC(=O)Cc2c(Cl)cccc2Cl)NC1=O [Compound 37, Guanfacine-(S)-Glutamic Cyclic adduct] | 110 | 58 | prodrug levels in plasma (in words) [1]: high prodrug levels
18 | N=C(NC(=O)CC[C@H](NC(=O)[C@H](N)CCC(N)=O)C(=O)O)NC(=O)Cc1c(Cl)cccc1Cl [Compound 46, (R)-Glutamine-(S)-γ-Glutamate(Guanfacine) Amide] | 81 | 61 | 
19 | N=C(NC(=O)CCCNC(=O)[C@@H]1CCC(=O)N1)NC(=O)Cc1c(Cl)cccc1Cl [Compound 23, Guanfacine (GABA-(S)-Pyroglutamic acid) Amide] | 78 | 98 | 
20 | CN1CC(=O)N=C1NC(=O)Cc1c(Cl)cccc1Cl [Compound 12, Cyclised Guanfacine Sarcosine Amide] | 87 | 48 | 
21 | N=C(NC(=O)CC[C@H](NC(=O)[C@H](N)Cc1ccc(O)cc1)C(=O)O)NC(=O)Cc1c(Cl)cccc1Cl [Compound 45, Guanfacine-(S)-γ-Glutamate-(R)-Tyrosine Amide] | 91 | 74 | 
22 | N=C(NC(=O)Cc1c(Cl)cccc1Cl)NC(=O)Oc1ccc(C[C@H](N)C(=O)O)cc1 [Compound 13, (S)-Tyrosine-(Guanfa ine) Carbamate] | 81 | 74 | 
23 | N=C(NC(=O)CC[C@H](NC(=O)[C@H](N)CCCCN)C(=O)O)NC(=O)Cc1c(Cl)cccc1Cl [Compound 43, Guanfacine-(S)-γ-Glutamate-(R)-Lysine Amide] | 85 | 62 | 
24 | N=C(NC(=O)CC[C@H](NC(=O)c1ccc(C(=O)O)cc1)C(=O)O)NC(=O)Cc1c(Cl)cccc1Cl [Compound 60, Terephthalic acid-(S)-γ-Glutamate(Guanfacine) Amide] | 97 | 81 | 
